# Like-named read-outs stand apart in the source and are kept apart here.
# Assays:
# [1] = test system: Passive cutaneous anaphylaxis (P.C.A.); assay: Inhibition of passive cutaneous anaphylaxis (P.C.A.); format: in vivo, rat (Sprague-Dawley); conditions: Rattus norvegicus, 1 h; rats, 2 × 10^-5 mol/kg p.o., one hour before ovalbumin challenge
# How it was run: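 Sprague-Dawley rats (150-180 g) were sensitized intradermally with rat IgE-rich anti-ovalbumin serum and challenged 24 h later with i.v. ovalbumin 8.25 mg/kg plus Evans blue. Compound was given orally at 2×10^-5 mol/kg 1 h before challenge. Dye exudation was scored visually at 30 min as % inhibition versus vehicle controls.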
# [2] = test system: Histamine-induced anaphylactoid reactions; assay: Inhibition of anaphylactoid cutaneous reaction induced by histamine; format: in vivo, rat (Sprague-Dawley); conditions: Rattus norvegicus, 1 h; rats, 2 × 10^-5 mol/kg p.o., one hour before challenge; histamine intradermal
# How it was run: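 Animals received 50 μl intradermal histamine (0.8 mg/ml in saline) in the flank opposite the antiserum site, just before i.v. ovalbumin plus blue dye. Test substance at 2×10^-5 mol/kg was given orally 1 h before challenge in water with 1% DMF and 1% Tween 20. Blue-dye exudation was scored visually at 30 min, giving % inhibition versus solvent controls.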
# histamine (H1) receptor = target: T1, histamine (H1) receptor (Cavia porcellus, UniProt P31389); assay: Antihistamine (H1) effect: inhibition of histamine-induced contractions of isolated guinea-pig ileum in vitro; format: cell-based, guinea-pig (Dunkin Hartley); conditions: histamine 5 × 10^-6 mol/l, test substance 10^-6 mol/l
# T1 construct: isolated smooth muscle of the guinea-pig ileum; from tissue; host or cells: isolated ileum segments of Dunkin Hartley guinea-pigs
# Description: 3. Investigation of the antihistamine (H1) effect based on histamine (H1) receptor antagonism in vitro.
# To investigate the histamine (H1) receptor antagonism of the substances, the inhibitory effect thereof on histamine-induced contractions of the smooth musculature of isolated organ was determined in vitro. Isolated strips of organ from the ileum were used. In an organ bath of physiological saline solution, they react to addition of histamine by contracting. Addition of the compounds of the invention decreases this histamine-induced contraction of the smooth musculature of the ileum strips. The extent of decrease of the contraction is an indication of the antihistamine (H1) activity of the compounds. The investigation is carried out analogously to the method originally described by Magnus (Pflugers Arch. 102, 123 (1904)).
# Experimental description of the determination of the inhibitory effect on the contraction induced by a 5×10^-6 molar histamine concentration on isolated smooth muscle of the guinea-pig ileum.
# For the test, 1.5 cm long segments of the ileum from Dunkin Hartley guinea-pigs having a body weight of 300-500 g were employed. Each strip was placed in an organ bath of 10 ml of Krebs-Henseleit physiological saline solution and attached to a customary apparatus for isotonically measuring changes in length of the ileum strip (automated Celaster measuring apparatus) so that the tissue is under a tension of 1 g. The bath was kept at a pH of 7.4 and aerated with a mixture of 5% CO2 and 95% O2. After an equilibration phase, an isotonic contraction of the tissue was produced by adding histamine in a final concentration of 5×10^-6 mol/l and was washed out again after a contact time of 30 seconds. Only those tissues in which three reproducible contractions were obtained at 10 minute intervals were used in the subsequent test. The test substances were then added in a final concentration of 10^-6 mol/l, and after a contact time of 30 seconds histamine was again added up to a concentration of 5×10^-6 mol/l. The contractions which occurred were measured over the course of 30 seconds. The tissue was then washed several times over a period of 10 minutes. A contraction challenge was then induced again by addition of histamine. The contractions which occurred were again measured over 30 seconds. The difference between the amplitude of the contraction obtained by histamine addition alone and the amplitude of the contraction obtained in the presence of the test substance was determined and calculated as % inhibition.
# The inhibitory effects on the contractions induced by histamine 30 seconds after administration of the test substance and on the contractions induced by addition of histamine 10 minutes afterward are given in the table.
# [3] = after 30 sec., read-out: in vitro (H1) receptor antagonism % inhibitory effect on histamine-induced contractions of the Ileum, after 30 sec.
# [4] = after 10 min. (after washing), read-out: in vitro (H1) receptor antagonism % inhibitory effect on histamine-induced contractions of the Ileum, after 10 min.
# T1 sequence (P31389 whole entry): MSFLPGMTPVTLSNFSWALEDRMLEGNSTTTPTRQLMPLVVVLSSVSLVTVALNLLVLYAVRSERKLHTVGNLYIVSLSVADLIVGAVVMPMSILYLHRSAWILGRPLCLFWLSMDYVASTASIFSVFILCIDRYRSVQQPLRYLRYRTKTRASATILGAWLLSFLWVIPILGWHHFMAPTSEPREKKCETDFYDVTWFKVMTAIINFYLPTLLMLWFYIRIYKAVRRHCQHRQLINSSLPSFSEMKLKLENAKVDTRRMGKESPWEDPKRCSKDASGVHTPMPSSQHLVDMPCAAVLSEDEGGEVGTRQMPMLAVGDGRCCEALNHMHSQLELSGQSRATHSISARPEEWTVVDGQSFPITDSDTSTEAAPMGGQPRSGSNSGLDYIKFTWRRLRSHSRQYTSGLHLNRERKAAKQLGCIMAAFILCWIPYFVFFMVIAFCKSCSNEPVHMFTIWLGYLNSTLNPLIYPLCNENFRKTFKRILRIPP
inhibition at 1 µM (histamine (H1) receptor; [3]) [%],inhibition at 1 µM (histamine (H1) receptor; [4]) [%],"in vitro (H1) receptor antagonism % inhibitory effect on histamine-induced contractions of the Ileum, after 30 sec. (histamine (H1) receptor; after 30 sec.) [%]","in vitro (H1) receptor antagonism % inhibitory effect on histamine-induced contractions of the Ileum, after 10 min. (histamine (H1) receptor; after 10 min. (after washing)) [%]",SMILES,inhibition in vivo at 20 µmol/kg [1] [%],inhibition in vivo at 20 µmol/kg [2] [%]
33,92,,,"Cc1ccnc(N2CCN(CCc3c(C)n4c5c(cc(C(=O)C(C)C)cc35)CCC4)CC2)c1 [Example 27, 5,6-dihydro-2-methyl-8-(2-methyl-1-oxopropyl)-1-{2-[4-(4-methylpyridin-2-yl)piperazin-1-yl]ethyl}-4H-pyrrolo-[3,2,1-ij]quinoline]",100,95
27,77,,,"Cc1ccnc(N2CCN(CCc3c(C)n4c5c(cc(N)cc35)CCC4)CC2)c1 [Example 20, 8-Amino-5,6-dihydro-2-methyl-1-{2-[4-(4-methylpyridin-2-yl)piperazin-1-yl]ethyl}-4H-pyrrolo[3,2,1-ij]quinoline]",100,95
45,96,,,Cc1ccnc(N2CCN(CCc3c(C)n4c5c(cccc35)CC4C)CC2)c1 (centres unmarked) [Example 33],100,93
10,77,,,"Cc1ccnc(N2CCN(CCc3c(C)n4c5c(cc(NC(=O)c6ccccc6)cc35)CCC4)CC2)c1 [Example 25, 8-Benzoylamino-5,6-dihydro-2-methyl-1-{2-[4-(4-methylpyridin-2-yl)piperazin-1-yl]-ethyl}-4H-pyrrolo[3,2,1-ij]quinoline]",100,100
13,72,,,C=CCCC1CCc2cccc3c(CCN4CCN(c5cc(C)ccn5)CC4)c(C)n1c23 (centres unmarked) [Example 62],100,95
21,48,,,COc1ccc(C2CCc3cc(OC)cc4c(CCN5CCN(c6cc(C)ccn6)CC5)c(C)n2c34)cc1 (centres unmarked) [Example 65],100,95
12,52,,,Cc1ccnc(N2CCN(CCc3c(C)n4c5c(cc(C(=O)C6CCCCC6)cc35)CCC4)CC2)c1 [Example 83],,
9,56,,,"Cc1ccnc(N2CCN(CCc3c(C)n4c5c(cc(CC(C)C)cc35)CCC4)CC2)c1 [Example 21, 5,6-Dihydro-2-methyl-8-(2-methylpropyl)-1-{2-[4-(4-methylpyridin-2-yl)piperazin-1-yl]ethyl}-4H-pyrrolo[3,2,1-ij]quinoline]",95,90
9,37,,,Cc1ccnc(N2CCN(CCc3c(C)n4c5c(cc(NC(=O)C(C)C)cc35)CCC4)CC2)c1 [Example 60],100,95
15,42,,,"CC(C)=Cc1cc2c3c(c1)c(CCN1CCN(c4cc(C)ccn4)CC1)c(C)n3CCC2 [Example 26, 5,6-Dihydro-2-methyl-8-(2-methylprop-1-enyl)-1-{2-[4-(4-methylpyridin-2-yl)piperazin-1-yl]ethyl}-4H-pyrrolo[3,2,1-ij]quinoline]",95,90
3,67,,,CCCCC1CCc2cc(O)cc3c(CCN4CCN(c5cc(C)ccn5)CC4)c(C)n1c23 (centres unmarked) [Example 76],100,100
10,71,,,Cc1ccnc(N2CCN(CCc3c(C)n4c5c(cc(C(=O)c6ccccc6)cc35)CCC4)CC2)c1 [Example 66],80,70
16,83,,,Cc1ccnc(N2CCN(CCc3c(C)n4c5c(ccc(C(=O)C(C)C)c35)SCC4)CC2)c1 [Example 91],86,87
7,38,,,"CCCCC1CCc2cc(C(=O)C(C)C)cc3c(CCN4CCN(c5cc(C)ccn5)CC4)c(C)n1c23 (centres unmarked) [Example 23, 4-n-Butyl-5,6-dihydro-8-(2-methyl-1-oxopropyl)-2-methyl-1-{2-[4-(4-methylpyridin-2-yl)piperazin-1-yl]ethyl}-4H-pyrrolo[3,2,1-ij]quinoline]",100,95
,,15,63,CNc1cc2c3c(c1)c(CCN1CCN(c4cc(C)ccn4)CC1)c(C)n3CCC2 [Example 80],,

# The next lines start with the compound.
SMILES,inhibition at 1 µM (histamine (H1) receptor; [3]) [%],inhibition at 1 µM (histamine (H1) receptor; [4]) [%],"in vitro (H1) receptor antagonism % inhibitory effect on histamine-induced contractions of the Ileum, after 30 sec. (histamine (H1) receptor; after 30 sec.) [%]","in vitro (H1) receptor antagonism % inhibitory effect on histamine-induced contractions of the Ileum, after 10 min. (histamine (H1) receptor; after 10 min. (after washing)) [%]",inhibition in vivo at 20 µmol/kg [1] [%],inhibition in vivo at 20 µmol/kg [2] [%]
Cc1ccnc(N2CCN(CCc3c(-c4ccc(F)cc4)n4c5c(cccc35)CCC4)CC2)c1 [Example 47],,,,,50,20
"COc1ccc(-c2c(CCN3CCN(c4cc(C)ccn4)CC3)c3cccc4c3n2CCC4)cc1 [Example 7, 2-(4-methoxy-phenyl)-1-{2-[4-(4-methylpyridin-2-yl)piperazin-1-yl]ethyl}-5,6-dihydro-4H-pyrrolo[3,2,1-ij]quinoline]",,,,,75,35
Cc1c(CCN2CCN(c3ccc(Br)cn3)CC2)c2cccc3c2n1CCC3 [Example 43],11,23,,,,
Cc1ccnc(N2CCN(CCc3c(C)n4c5c(cc(N(C)C)cc35)CCC4)CC2)c1 [Example 81],,,,,86,82
"CCCCCCCC1CCc2cccc3c(CCN4CCN(c5cc(C)ccn5)CC4)c(C)n1c23 (centres unmarked) [Example 4, 4-n-heptyl-5,6-dihydro-2-methyl-1-{2-[4-(4-methylpyridin-2-yl)piperazin-1-yl]ethyl}-4H-pyrrolo[3,2,1-ij]-quinoline]",,,,,55,55
"CCc1c(CCN2CCN(c3cc(C)ccn3)CC2)c2cccc3c2n1CCC3 [Example 15, 2-Ethyl-5,6-dihydro-1-{2-[4-(4-methylpyridin-2-yl)piperazin-1-yl]ethyl}-4H-pyrrolo[3,2,1-ij]quinoline]",29,78,,,85,65
Cc1ccnc(N2CCN(CCc3c(C)n4c5c(cccc35)CCC4c3ccc(O)cc3)CC2)c1 (centres unmarked) [Example 61],,,,,100,100
"Cc1ccnc(N2CCN(CCc3c(-c4ccc(OCCCCO)cc4)n4c5c(cccc35)CCC4)CC2)c1 [Example 12, 2-[4-(4-Hydroxybutyloxy)-phenyl]-1-{2-[4-(4-methylpyridin-2-yl)piperazin-1-yl]ethyl}-5,6-dihydro-4H-pyrrolo[3,2,1-ij]quinoline]",,,,,25,25
Cc1ccnc(N2CCN(CCc3c(C)n4c5c(cc(Cc6ccccc6)cc35)CCC4)CC2)c1 [Example 77],,,,,60,30
COc1ccc(C2CCc3cccc4c(CCN5CCN(c6cc(C)ccn6)CC5)c(C)n2c34)cc1 (centres unmarked) [Example 59],,,,,95,95
"CCCCC1CCc2cccc3c(CCN4CCN(c5cc(C)ccn5)CC4)c(C)n1c23 (centres unmarked) [Example 73, 4-n-butyl-5,6-dihydro-2-methyl-1-{2-[4-(4-methylpyridin-2-yl)piperazin-1-yl]ethyl}-4H-pyrrolo[3,2,1-ij]quinoline]",,,,,100,95
